Reference: patent US20080254152A1, “Methods for Reducing the Effects of Stress on Skin Condition” (priority 2003, published 2008)
Entries after “also recorded” stand apart in the source; their conditions may differ.

Experiments:
[1] = tested on: ICAM-1 expression in HUVECs; test: ICAM-1 expression in HUVECs pre-treated 5 days with dexamethasone, then oxidatively stressed with PMA (ELISA); format: cell-based, Human; settings: then 1 μM PMA, HUVEC
Procedure: An in vitro model has been developed to investigate the impact of chronic stress on the inflammatory status of endothelial cells. • a. Cells are grown in 6-well (9.5 cm^2) plates. • b. […] Tissue culture supernatant and cell pellets are harvested at timepoint T0. • d. The cells are oxidatively stressed with 1 μM Phorbol Myristate Acetate (PMA). • e. Tissue culture supernatant and cell pellets were harvested at 6, 24 and 48 hours (T6, T24 and T48, respectively) post-PMA treatment. • f. All tissue culture supernatant was assayed for Lactate Dehydrogenase (LDH), as a measure of cytotoxicity, and Interleukin-6 synthesis. • g. All cells were counted (Beckman Coulter Counter) and pelleted and cell lysate assayed for ICAM-1 expression (Intra Cellular Adhesion Molecule 1).
HUVEC cells (Human umbilical vein endothelial cells, TCS Biologicals) were cultured and passaged in EGM-2 (Endothelial growth medium, Biowhittaker) supplemented with heparin, VEGF (vascular endothelial growth factor), gentamicin sulphate, ascorbic acid, HEGF (Human endothelial growth factor), hydrocortisone, HFGF-B (Human fibroblast growth factor B), R3-IGF-1 (long R insulin-like growth factor 1) and FBS (foetal bovine serum).
Cells were routinely plated out in 6-well tissue culture dishes, at a seeding density of ˜5000 cells/cm^2 in 2 ml complete medium/well, 48 hours before starting the experiment, and incubated at 37° C. in 5% CO2.
Pre-treatment and test solutions were prepared in EGM-2 containing all supplements except hydrocortisone.
Following this, the cells were oxidatively stressed for 24 hours with 1 μM PMA (Sigma P8139).
Receptor antagonists were added to the cells during the pre-treatment period. These included the Glucocorticoid Receptor Antagonist; 2 μM Mifepristone (Sigma M8046) and two CRH receptor antagonists; 200 nM Astressin (Sigma A4933) and 200 nM α-helical CRF peptide antagonist (Sigma C2917).
Any change in cell morphology was noted before the cells were harvested. Both the tissue culture supernatant and the endothelial cells were harvested after the five-day pre-treatment period (T0), at 6 hours and 24 hours after addition of PMA (T6 and T24) and at 24 hours after removal of the PMA (T48). All tissue culture supernatants were stored at −20° C.
All cell pellets were lysed on ice for 30 minutes in 1 ml cell lysis buffer per 2.5×10^6 cells. The lysis buffer contained 1% NP-40, 0.1% sodium deoxycholate, 0.1% SDS, 6 mM sodium chloride and 0.05M Tris at pH 7.6. Protease inhibitor cocktail ([…]; Sigma P8340) was added prior to use at a level of 10 μl per ml of lysis buffer. The partially lysed cell pellets were completely homogenised with a pellet pestle and unwanted cell debris removed by centrifugation for 20 minutes at 20,000 g at 4° C. The clarified cell lysate was frozen at −80° C. until needed.
The total protein concentration of each cell lysate was measured using the Pierce BCA protein assay kit. A set of eight standard solutions ranging from 0 to 1200 μg/ml protein was prepared from the supplied 2 mg/ml BSA stock solution. 10 μl of standard or cell lysate was added to duplicate wells of a flat-bottomed, 96-well microtitre plate. The reagent solution was prepared according to the kit instructions from 50 parts reagent A and 1 part reagent B. 200 μl of the final reagent was added to each well of the microtitre plate. The plate was mixed, covered and incubated at 37° C. for 30 minutes and absorbance read at 562 nm.
ICAM-1 protein in each cell lysate was estimated using the Human sICAM-1 DuoSet ELISA kit (R&D Systems DY720) according to the manufacturer's instructions.
The capture antibody was diluted to a final concentration of 4 μg/ml in PBS and 100 μl was used to coat each well of a 96-well microtitre plate overnight at room temperature. The plate was then washed three times with wash buffer (0.05% Tween 20 in PBS).

[2] = tested on: MMP-1 expression in human neonatal dermal fibroblast cells; test: Active MMP-1 in neonatal-derived human dermal fibroblasts after chronic dexamethasone and PMA; format: cell-based; settings: agent added during dexamethasone pre-treatment; dermal fibroblasts
Procedure: (§1) In this study, to understand better the effect of chronic stress on dermal matrix remodelling in the skin, we have therefore measured changes in markers of dermal matrix degradation (MMP-1) and dermal matrix synthesis (Procollagen I) in chronically glucocorticoid-treated primary human dermal fibroblasts, following acute stress with PMA. The experimental approach is similar to that described in example 1 except that the cells tested are dermal fibroblasts and cells are assayed for expression of procollagen-1, MMP-1 and MMP-9 expression.
(§2) Primary human dermal fibroblast cells were cultured and passaged in DMEM (Gibco) supplemented with 10% FBS (foetal bovine serum). Cells were routinely plated out in 6-well tissue culture dishes, at a seeding density of ˜5000 cells/cm^2 in 2 ml complete medium/well for 24 hours, and incubated at 37° C. in 5% CO2. Media was removed and cells grown in DMEM & 1% FBS, 24 hours prior to treatments.
(§3) Pre-treatment and test solutions were prepared in DMEM containing low serum (1% FBS). […] Following this, the cells were oxidatively stressed for 24 hours with 1 μM PMA (Sigma P8139).
MMP-1 and MMP-9 protein in each cell supernatant was estimated using the Human active MMP-1 and MMP-9 Fluorokine enzyme kit (R&D Systems F1M00 and F9M00, respectively), according to the manufacturer's instructions.
Six MMP-1 and MMP-9 standards were prepared in calibrator diluent at concentrations ranging from 0.39 to 12.5 ng/ml and 0.25 to 16 ng/ml, respectively. 100 μl of assay diluent and 150 μl of tissue culture supernatant or standard was added to duplicate wells. The plate was incubated at room temperature for 3 hours on a horizontal orbital plate shaker before being washed four times with wash buffer. 200 μl of APMA was added to each well and the plate incubated at 37° C. for 2 hours in a humidified environment and protected from the light. The plate was washed as before. Each well received 200 μl of substrate solution and the plate incubated at 37° C. for 17-20 hours in a humidified environment and protected from the light. The relative fluorescence unit (RFU) of each well was determined using a fluorescence plate set with 1×20 mS integration time, plate speed ˜6; excitation wavelength set to 320 nm and emission wavelength set to 405 nm.
A standard curve was plotted of mean RFU versus MMP-1 and MMP-9 concentration (respectively), and the line of best fit calculated by regression analysis. The unknown concentration of either active MMP-1 or MMP-9 protein in all of the samples was estimated from this.
(§4) The same methods were used as described in Example 2, except that various test agents were added to the cells during the pre-treatment period.

[3] = tested on: procollagen-1 expression in human neonatal dermal fibroblast cells; test: Procollagen I C-peptide EIA in neonatal-derived human dermal fibroblasts after chronic dexamethasone and PMA; format: cell-based; settings: agent added during dexamethasone pre-treatment; dermal fibroblasts
Procedure: as §1, §2, §3
Collagen I is synthesised as a precursor molecule, Procollagen I. The amount of free propeptide therefore, reflects stoichiometrically, the amount of collagen I synthesised. The Procollagen Type I C-peptide Enzyme Immunoassay (EIA) kit allows for the quantitative determination of Procollagen Type I C-peptide (PIP).
Eight PIP standards were prepared in sample diluent at concentrations ranging from 0 to 640 ng/ml. 100 μl of antibody-Peroxidase conjugate solution and 20 μl of cell lysate (1 μg protein) or standard was added to duplicate wells. The plate was sealed and incubated at 37° C. for 3 hours before being washed four times with 400 μl of PBS. Each well then received 100 μl of substrate solution and the plate incubated at room temperature, on the benchtop, for 15 minutes. After this period, 100 μl stop solution was added to each well and absorbance measured at 450 nm with a plate reader.
A standard curve was plotted of mean absorbance versus PIP concentration and the line of best fit calculated by regression analysis. The unknown concentration of PIP in all the samples was estimated from this.
as §4

[4] = agent 1 μM during 5-day 1 μM dexamethasone pre-treatment
[5] = agent 10 μM during 5-day 1 μM dexamethasone pre-treatment

Row | Molecule | Effective? (suppression of ICAM-1 synthesis in chronically stressed endothelial cells) [1, 4] | Effect on glucocorticoid effects on levels of MMP-1 expression following PMA-induced acute stress [2] | Effect on glucocorticoid effects on levels of procollagen expression following PMA-induced acute stress [3] | Effective? (suppression of ICAM-1 synthesis in chronically stressed endothelial cells) [1, 5] | further results
1 | CC(C)=CCC[C@](C)(O[C@@H]1O[C@H](CO[C@@H]2O[C@@H](CO)[C@H](O)[C@H]2O)[C@@H](O)[C@H](O)[C@H]1O)[C@H]1CC[C@]2(C)[C@@H]1[C@H](O)C[C@@H]1[C@@]3(C)CC[C@H](O[C@@H]4O[C@H](CO)[C@@H](O)[C@H](O)[C@H]4O[C@@H]4O[C@H](CO)[C@@H](O)[C@H](O)[C@H]4O)C(C)(C)[C@@H]3CC[C@]12C [Ginsenoside Rc] | Yes | inhibited the effects of glucocorticoid | inhibited the effects of glucocorticoid | – | –
2 | COc1cc(/C=C/C(=O)CC(=O)/C=C/c2ccc(O)c(OC)c2)ccc1O [Curcumin] | Yes | inhibited the effects of glucocorticoid | inhibited the effects of glucocorticoid | – | –
3 | C/C(=C\CC/C(C)=C/CCC1[C@](C)(O)CC[C@H]2C(C)(C)C(=O)CC[C@]12C)CC/C=C(\C)C(=O)O (stereo partly shown) [Commipheric acid] | – | inhibited the effects of glucocorticoid | inhibited the effects of glucocorticoid | – | Effective? (suppression of ICAM-1 synthesis in chronically stressed endothelial cells) ([1]; agent 10 μg/ml during 5-day 1 μM dexamethasone pre-treatment): Yes
4 | CC(C)=CCC[C@](C)(O[C@@H]1O[C@H](CO[C@@H]2O[C@H](CO)[C@@H](O)[C@H](O)[C@H]2O)[C@@H](O)[C@H](O)[C@H]1O)[C@H]1CC[C@]2(C)[C@@H]1[C@H](O)C[C@@H]1[C@@]3(C)CC[C@H](O[C@@H]4O[C@H](CO)[C@@H](O)[C@H](O)[C@H]4O[C@@H]4O[C@H](CO)[C@@H](O)[C@H](O)[C@H]4O)C(C)(C)[C@@H]3CC[C@]12C [Ginsenoside Rb1] | Yes | inhibited the effects of glucocorticoid | inhibited the effects of glucocorticoid | – | –
5 | CC(C)CC[C@@H](O)[C@@H](C)[C@H]1CC[C@H]2[C@@H]3CC=C4C[C@@H](O)CC[C@]4(C)[C@H]3CC[C@]12C [22-OH-cholesterol, 22-(R)-Hydroxycholesterol] | Yes | – | – | – | –
6 | CC#C[C@]1(O)CC[C@H]2[C@@H]3CCC4=CC(=O)CCC4=C3[C@@H](c3ccc(N(C)C)cc3)C[C@@]21C [Mifepristone] | – | – | – | – | ICAM-1 expression compared with cells without chronic GC treatment ([1]; 2 μM mifepristone during chronic 1 μM glucocorticoid pre-treatment): below that seen in cells that had not received chronic GC treatment; Effect on oxidative stress-induced increase in ICAM-1 expression ([1]; 2 μM mifepristone during chronic 1 μM glucocorticoid pre-treatment, FIG. 3): significant reduction; also recorded: completely blocked
7 | Alliin | – | – | – | No | –
8 | O=C(O)/C=C/c1ccc(O)c(O)c1 [Caffeic acid] | – | – | – | – | Effective? (suppression of ICAM-1 synthesis in chronically stressed endothelial cells) ([1]; agent 150 μM during 5-day 1 μM dexamethasone pre-treatment): No
9 | C=C1[C@@H](O)[C@@H]2O[C@]3(CC[C@H](/C=C/[C@@H](C)[C@@H]4CC(C)=C[C@@]5(O[C@H](C[C@@](C)(O)C(=O)O)CC[C@H]5O)O4)O3)CC[C@H]2O[C@@H]1[C@@H](O)C[C@H](C)[C@H]1O[C@@]2(CCCCO2)CC[C@H]1C [Okadaic acid] | – | – | – | – | Effective? (suppression of ICAM-1 synthesis in chronically stressed endothelial cells) ([1]; agent 1 nM during 5-day 1 μM dexamethasone pre-treatment): Yes
10 | CCNC(=O)CC[C@H](N)C(=O)O [Theanine] | – | – | – | No | –
11 | Oc1ccc(C=Cc2cc(O)cc(O)c2)cc1 [Resveratrol] | – | – | – | No | –
12 | Cc1cccc(Nc2cc(Cl)nc(SCC(=O)O)n2)c1C [WY14643] | – | – | – | No | –
13 | Mevinolin | Yes | – | – | – | –
